Measured values reported in ChEMBL document CHEMBL4725274 (Bioorg Med Chem Lett, 2020).
Calls of active or inactive are those of the source. The rule behind the calls is not given here. Where a SMILES comes first, the peptide text is derived from it. The star is where a group is joined. Stearoyl = CCCCCCCCCCCCCCCCCC(=O)*

Tests used:
[1] = target: Substance-P receptor (Homo sapiens) (UniProt P25103); assay: Binding affinity to NK1R (unknown origin) expressed in HEK293 cells assessed as reduction in cell viability in presence of p53 plasmid at N/P ratio of 1 incubated for 96 hrs by MTT assay relative to control; type: cell-based
HEK293 [2] = assay: Cytotoxicity against HEK293 cells assessed as reduction in cell viability incubated for 96 hrs by MTT assay; type: cell-based; settings: Homo sapiens, HEK293, 96 h
[3] = Drug uptake in HEK293 cells at 1 uM incubated for 1 hr by flow cytometry analysis; type: ADME, cell-based; settings: human, hek293, 1 h
[4] = Drug uptake in HEK293 cells at 1 uM incubated for 1 hr by confocal microscopy analysis; type: ADME, cell-based; settings: human, hek293, 1 h
HEK293 [5] = assay: Activation of luciferase (unknown origin) expressed in HEK293 cells in presence of pGL3 plasmid incubated for 30 mins by luciferase reporter gene assay; type: cell-based
[6] = target: Substance-P receptor (Homo sapiens) (UniProt P25103); assay: Binding affinity to NK1R (unknown origin) expressed in HEK293 cells assessed as reduction in cell viability in presence of p53 plasmid at N/P ratio of 2 incubated for 96 hrs by MTT assay relative to control; type: cell-based
[7] = target: Substance-P receptor (Homo sapiens) (UniProt P25103); assay: Binding affinity to NK1R (unknown origin) expressed in HEK293 cells assessed as reduction in cell viability in presence of p53 plasmid at N/P ratio of 3 incubated for 96 hrs by MTT assay relative to control; type: cell-based
HEK293 [8] = assay: Cytotoxicity against HEK293 cells assessed as reduction in cell viability in presence of p53 plasmid at N/P ratio of 0.5 to 3 incubated for 96 hrs by MTT assay; type: cell-based; settings: human, hek293, 96 h
[9] = target: Substance-P receptor (Homo sapiens) (UniProt P25103); assay: Binding affinity to NK1R (unknown origin) expressed in HEK293 cells assessed as reduction in cell viability in presence of p53 plasmid at N/P ratio of 0.5 to 3 incubated for 96 hrs by MTT assay; type: cell-based

Chain of Substance-P receptor (Homo sapiens) (P25103 whole entry): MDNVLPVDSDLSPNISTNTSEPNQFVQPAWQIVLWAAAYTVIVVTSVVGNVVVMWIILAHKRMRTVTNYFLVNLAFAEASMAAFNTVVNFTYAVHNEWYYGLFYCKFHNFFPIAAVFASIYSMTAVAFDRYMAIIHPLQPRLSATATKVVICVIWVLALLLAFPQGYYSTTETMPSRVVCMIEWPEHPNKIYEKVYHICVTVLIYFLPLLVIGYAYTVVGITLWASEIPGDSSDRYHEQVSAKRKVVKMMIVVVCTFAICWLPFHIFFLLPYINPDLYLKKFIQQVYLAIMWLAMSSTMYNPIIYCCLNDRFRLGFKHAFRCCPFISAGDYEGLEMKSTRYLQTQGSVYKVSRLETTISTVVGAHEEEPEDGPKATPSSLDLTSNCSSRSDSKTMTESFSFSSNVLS

- Drug uptake [3]: Active
- Drug uptake [4]: Active
SMILES: CCCCCCCCCCCCCCCCCC(=O)N[C@@H](CCCCN)C(=O)N[C@@H](Cc1c[nH]c2ccccc12)C(=O)N[C@@H](CCCCN)C(=O)N[C@@H](CC(C)C)C(=O)N[C@@H](CCC(=O)O)C(=O)N[C@@H](CCCCN)C(=O)N[C@@H](CCCCN)C(=O)N[C@H](C(=O)NCC(=O)N[C@@H](C)C(=O)N[C@H](C(=O)N[C@@H](CC(C)C)C(=O)N[C@H](C(=O)N[C@@H](CS)C(=O)N[C@H](C(=O)N[C@@H](CC(C)C)C(=O)N[C@@H](CCCNC(=N)N)C(=O)N1CCC[C@H]1C(=O)N[C@@H](CCCCN)C(=O)N1CCC[C@H]1C(=O)N[C@@H](CCC(N)=O)C(=O)N[C@@H](CCC(N)=O)C(=O)N[C@@H](Cc1ccccc1)C(=O)N[C@@H](Cc1ccccc1)C(=O)NCC(=O)N[C@@H](CC(C)C)C(=O)N[C@@H](CCSC)C(N)=O)C(C)C)[C@@H](C)CC)C(C)C)[C@@H](C)CC (Stearoyl-KWKLEKKIGAVLICVLRPKPQQFFGLM-NH2)
- Activity [1]: 51.6%
- EC50 (HEK293 [2]): 7.5 µM
- Activity (HEK293 [5]): inactive
- Activity [6]: 66.7%
- Activity [7]: 70.2%
- Activity (HEK293 [8]): Active
- Activity [9]: Active
